IC50 data for 18 molecules are collected here from patent publication US10316017B2, “COT modulators and methods of use thereof” (Gilead Sciences, Inc., priority 2015, dated 2019).

As a reminder, the IC50 is the concentration that gives 50% inhibition.

T1 sequence (P41279 30-397): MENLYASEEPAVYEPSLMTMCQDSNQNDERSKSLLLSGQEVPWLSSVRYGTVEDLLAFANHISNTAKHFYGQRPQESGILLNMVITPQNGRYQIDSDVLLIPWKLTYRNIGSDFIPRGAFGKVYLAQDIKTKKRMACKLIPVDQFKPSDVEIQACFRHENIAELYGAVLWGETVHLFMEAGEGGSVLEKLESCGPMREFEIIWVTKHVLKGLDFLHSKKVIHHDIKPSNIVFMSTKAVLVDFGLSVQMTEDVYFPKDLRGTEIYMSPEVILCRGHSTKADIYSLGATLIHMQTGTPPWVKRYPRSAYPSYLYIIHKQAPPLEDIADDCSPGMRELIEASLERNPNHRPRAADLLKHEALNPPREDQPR

The assay addresses T1, human Cot catalytic domain (30-397 amino acids) (Homo sapiens, UniProt P41279).
T1 construct: Purified recombinant human Cot catalytic domain (30-397 amino acids) was purchased from Cama Biosciences; purchased Cama Biosciences (so in the source)
Description: High Throughput Cot Biochemical Assay (KinEASE TR-FRET). The following applies: Cot KinEASE TR-FRET, 400 μM ATP; read-out: IC50 HTRF. The method, then: Example 61: High Throughput Cot Biochemical Assay
In this assay, Cot-catalyzes the phosphorylation of a XL665-labeled peptide substrate. Europium conjugated phospho-tyrosine specific antibody binds the resulting phosphorylated peptide. […] Purified recombinant human Cot catalytic domain (30-397 amino acids) was purchased from Cama Biosciences. […] The standard 5 μL reaction mixture contained 400 μM ATP, 1 μM STK3 peptide, 5 nM of Cot in reaction buffer (10 mM MOPS, pH 7.0, 0.02% NaN3, 0.5 mg/mL BSA, 10 mM MgOAc, 1 mM DTT, 0.025% NP-40, 1.5% glycerol) and 0.1% DMSO.
In the case of `CC(C)(C)N1CCC(n2cc([C@@H](Nc3cc(Cl)c4ncc(C#N)c(Nc5cccc(C(F)F)c5)c4c3)c3ccc(Cl)cc3)nn2)CC1` [Example 761, (S)-6-(((1-(1-(tert-butyl)piperidin-4-yl)-1H-1,2,3-triazol-4-yl)(4-chlorophenyl)methyl)amino)-8-chloro-4-((3-(difluoromethyl)phenyl)amino) quinoline-3-carbonitrile], the IC50 was found to be 484 nM.
To `N#Cc1cnc2c(Cl)cc(NC(c3ccc(F)cc3)c3nccs3)cc2c1Nc1ccc(F)c(Cl)c1` (stereo not drawn) [Example 782, 8-chloro-4-((3-chloro-4-fluorophenyl)amino)-6-(((4-fluorophenyl)(thiazol-2-yl)methyl)amino)quinoline-3-carbonitrile] belongs 444 nM.
To `N#Cc1cnc2c(Cl)cc(NC(c3ccc(Cl)cc3)c3cn(C4CCNCC4)nn3)cc2c1Nc1ccc(F)c(Cl)c1` (stereo not drawn) [Example 914, 8-chloro-4-((3-chloro-4-fluorophenyl)amino)-6-(((4-chlorophenyl)(1-(piperidin-4-yl)-1H-1,2,3-triazol-4-yl)methyl)amino)quinoline-3-carbonitrile] belongs 23 nM; to `Cc1ccc(C(Nc2cc(Cl)c3ncc(C#N)c(Nc4ccc(F)c(Cl)c4)c3c2)c2cn(C3CCN(C(=O)OCc4ccccc4)CC3)nn2)cc1` (stereo not drawn) [Example 915, benzyl 4-(4-(((8-chloro-4-((3-chloro-4-fluorophenyl)amino)-3-cyanoquinolin-6-yl)aminoXp-tolyl)methyl)-1H-1,2,3-triazol-1-yl)piperidine-1-carboxylate], > 1000 nM; to `N#Cc1cnc2c(Cl)cc(NC(c3ccc(F)cc3)c3c[nH]nn3)cc2c1Nc1ccc(F)c(Cl)c1` (stereo not drawn) [Example 893, 8-chloro-4-((3-chloro-4-fluorophenyl)amino)-6-(((4-fluorophenyl)(1H-1,2,3-triazol-4-yl)methyl)amino)quinoline-3-carbonitrile], 39 nM.
In the case of `CCN1CCC(n2cc(C(Nc3cc(Cl)c4ncc(C#N)c(Nc5ccc(F)c(Cl)c5)c4c3)c3cccc(OC)c3)nn2)CC1` (stereo not drawn) [Example 904, 8-chloro-4-((3-chloro-4-fluorophenyl)amino)-6-(((1-(1-ethylpiperidin-4-yl)-1H-1,2,3-triazol-4-yl)(3-methoxyphenyl)methyl)amino) quinoline-3-carbonitrile], the IC50 is 5 nM.
Consider `N#Cc1cnc2c(Cl)cc(NC(c3ccc(F)cc3)c3cn([C@H]4CCN(C(=O)OCc5ccccc5)C4)nn3)cc2c1Nc1ccc(F)c(Cl)c1` (stereo partly drawn) [Example 876, benzyl (3S)-3-(4-(((8-chloro-4-((3-chloro-4-fluorophenyl)amino)-3-cyanoquinolin-6-yl)amino)(4-fluorophenyl)methyl)-1H-1,2,3-triazol-1-yl)pyrrolidine-1-carboxylate], for which the IC50 amounted to 385 nM.
As for `N#Cc1cnc2c(Cl)cc(NC(c3ccc(F)cc3)c3cccnc3)cc2c1Nc1ccc(F)c(Cl)c1` (stereo not drawn) [Example 862, 8-chloro-4-((3-chloro-4-fluorophenyl)amino)-6-(((4-fluorophenyl)(pyridin-3-yl)methyl)amino)quinoline-3-carbonitrile], the IC50 came out at 3960 nM.
For the molecule `N#Cc1cnc2c(Cl)cc(NC(c3ccc(F)cc3)c3cn(C[C@H]4CCCN4)nn3)cc2c1Nc1ccc(F)c(Cl)c1` (stereo partly drawn) [Example 817, 8-chloro-4-((3-chloro-4-fluorophenyl)amino)-6-(((4-fluorophenyl)(1-(((R)-pyrrolidin-2-yl)methyl)-1H-1,2,3-triazol-4-yl)methyl)amino)quinoline-3-carbonitrile], the IC50 stood at 7 nM.
To `CCN1CC(n2cc(C(Nc3cc(Cl)c4ncc(C#N)c(Nc5ccc(F)c(Cl)c5)c4c3)c3ccc(F)cc3)nn2)C1` (stereo not drawn) [Example 870, 8-chloro-4-((3-chloro-4-fluorophenyl)amino)-6-(((1-(1-ethylazetidin-3-yl)-1H-1,2,3-triazol-4-yl)(4-fluorophenyl)methyl)amino) quinoline-3-carbonitrile] belongs 27 nM.
As for `Cc1snnc1C(Nc1cc(Cl)c2ncc(C#N)c(Nc3ccc(F)c(Cl)c3)c2c1)c1ccc(F)cc1` (stereo not drawn) [Example 718, 8-chloro-4-((3-chloro-4-fluorophenyl)amino)-6-(((4-fluorophenyl)(5-methyl-1,2,3-thiadiazol-4-yl)methyl)amino)quinoline-3-carbonitrile], the figure is 3460 nM; as for `N#Cc1cnc2c(Cl)cc(N[C@@H](c3ccc(F)cc3)c3cn(C4CCN(C5CC5)CC4)nn3)cc2c1Nc1ccc(F)c(Cl)c1` [Example 821, (S)-8-chloro-4-((3-chloro-4-fluorophenyl)amino)-6-(((1-(1-cyclopropylpiperidin-4-yl)-1H-1,2,3-triazol-4-yl)(4-fluorophenyl)methyl)amino) quinoline-3-carbonitrile], 21 nM.
As for `CC1(C)CNCCC1n1cc(C(Nc2cc(Cl)c3ncc(C#N)c(Nc4ccc(F)c(Cl)c4)c3c2)c2ccc(F)cc2)nn1` (stereo not drawn) [Example 840, 8-chloro-4-((3-chloro-4-fluorophenyl)amino)-6-(((1-(3,3-dimethylpiperidin-4-yl)-1H-1,2,3-triazol-4-yl)(4-fluorophenyl)methyl)amino) quinoline-3-carbonitrile], the figure is 84 nM; as for `N#Cc1cnc2c(Cl)cc(NC(c3ccc(Cl)cc3)c3cn(C4CCN(C(=O)OCc5ccccc5)CC4)nn3)cc2c1Nc1ccc(F)c(Cl)c1` (stereo not drawn) [Example 913, benzyl 4-(4-(((8-chloro-4-((3-chloro-4-fluorophenyl)amino)-3-cyanoquinolin-6-yl)amino)(4-chlorophenyl)methyl)-1H-1,2,3-triazol-1-yl)piperidine-1-carboxylate], > 1000 nM; as for `CCN1CCC(n2cc([C@H](Nc3cc(Cl)c4ncc(C#N)c(Nc5ccc(F)c(Cl)c5)c4c3)c3ccc(Cl)cc3)nn2)CC1` [Example 856, (R)-8-chloro-4-((3-chloro-4-fluorophenyl)amino)-6-(((4-chlorophenyl)(1-(1-ethylpiperidin-4-yl)-1H-1,2,3-triazol-4-yl)methyl)amino)quinoline-3-carbonitrile], 860 nM.
For the molecule `N#Cc1cnc2c(Cl)cc(NC(c3cc(F)c(F)c(F)c3)c3cn(C4CCNCC4)nn3)cc2c1Nc1ccc(F)c(Cl)c1` (stereo not drawn) [Example 875, 8-chloro-4-((3-chloro-4-fluorophenyl)amino)-6-(((1-(piperidin-4-yl)-1H-1,2,3-triazol-4-yl)(3,4,5-trifluorophenyl)methyl)amino) quinoline-3-carbonitrile], the IC50 is 66 nM.
Consider `N#Cc1cnc2c(Cl)cc(NC(c3ccc(F)cc3)c3cn([C@@H]4CCNC4)nn3)cc2c1Nc1ccc(F)c(Cl)c1` (stereo partly drawn) [Example 864, 8-chloro-4-((3-chloro-4-fluorophenyl)amino)-6-(((4-fluorophenyl)(1-((R)-pyrrolidin-3-yl)-1H-1,2,3-triazol-4-yl)methyl)amino)quinoline-3-carbonitrile], for which the IC50 was found to be 22 nM.
To `Cc1cc2ncc(C#N)c(Nc3ccc(F)c(Cl)c3)c2cc1NC(c1ccc(F)cc1)c1cn(C)nn1` (stereo not drawn) [Example 773, 4-((3-chloro-4-fluorophenyl)amino)-6-(((4-fluorophenyl)(1-methyl-1H-1,2,3-triazol-4-yl)methyl)amino)-7-methylquinoline-3-carbonitrile] belongs 1860 nM.
